Experimental data: patent US20070203118A1, “SUBSTITUTED TETRAHYDROISOQUINOLINES USED IN THE FORM OF MMP INHIBITORS, METHOD FOR THE PRODUCTION AND USE THEREOF IN THE FORM OF DRUGS” (SANOFI-AVENTIS DEUTSCHLAND GMBH, priority 2004, published 2007)

What was measured:
Type in all cases: biochemical
[1] = target: T1, neutrophil collagenase (MMP-8) (Homo sapiens, UniProt P22894); assay: Enzymatic activity of the catalytic domain of neutrophil collagenase (MMP-8), fluorogenic substrate
T1 construct: Catalytic Domain of Human Stromelysin (MMP-3) and of Neutrophil Collagenase (MMP-8); made in house
T1 sequence (P22894 100-262 limits assumed): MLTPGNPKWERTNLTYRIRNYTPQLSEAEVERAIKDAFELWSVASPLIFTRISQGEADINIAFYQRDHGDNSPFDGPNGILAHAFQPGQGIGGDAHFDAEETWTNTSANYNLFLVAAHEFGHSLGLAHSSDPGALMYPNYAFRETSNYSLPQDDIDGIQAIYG
Method: Preparation and Determination of the Enzymatic Activity of the Catalytic Domain of Human Stromelysin (MMP-3) and of Neutrophil Collagenase (MMP-8)
The two enzymes stromelysin (MMP-3) and neutrophil collagenase (MMP-8) were prepared by the method of Ye et al. (Biochemistry; 31 (1992) pages 11 231-11 235). The enzymic activity or the effect of the enzyme inhibitor was measured by incubating 10 μl of enzyme solution with 10 μl of a 3% strength (v/v) buffered dimethyl sulfoxide solution which contained the enzyme inhibitor where appropriate, for 15 minutes. After addition of 10 μl of a 3% strength (v/v) aqueous dimethyl sulfoxide solution which contained 1 mmol/l of the substrate, the enzymic reaction was followed by fluorescence spectroscopy (328 nm (ex)/393 nm(em)). The enzymic activity is presented as increase in extinction/minute.
The IC50 values listed in Table 4 were determined as the inhibitor concentrations leading in each case to 50% inhibition of the enzyme. The buffer solution contained 0.05% Brij (Sigma, Deisenhofen, Germany) and 0.1 mol/l Tris/HCl, 0.1 mol/l NaCl, 0.01 mol/l CaCl2 and 0.1 mol/l piperazine-N,N′-bis[2-ethanesulfonic acid] (pH=7.5).
The MMP-3 enzyme solution contained 2.3 μg/ml and the MMP-8 enzyme solution 0.6 μg/ml of one of the enzyme domains prepared by the method of Ye et al. The substrate solution contained 1 mmol/l of the fluorogenic substrate (7-methoxycoumarin-4-yl)acetyl-Pro-Leu-Gly-Leu-3-(2′,4′-dinitrophenyl)-L-2,3-diaminopropionyl-Ala-Arg-NH2 (Bachem, Heidelberg, Germany).

[2] = target: T2, catalytic domain of human collagenase-3 (MMP-13) (Homo sapiens, UniProt P45452); assay: Enzymatic activity of the catalytic domain of human collagenase-3 (MMP-13), fluorogenic substrate
T2 construct: Determination of the Enzymatic Activity of the Catalytic Domain of Human Collagenase-3 (MMP-13); purchased INVITEK, Berlin
Method: Determination of the Enzymatic Activity of the Catalytic Domain of Human Collagenase-3 (MMP-13)
Activation of the proenzyme: 2 parts by volume of proenzyme were incubated with 1 part by volume of APMA solution at 37° C. for 1.5 hours. The APMA solution was prepared from a 10 mmol/l p-aminophenylmercuric acetate solution in 0.1 mmol/l NaOH by dilution with 3 parts by volume of Tris/HCl buffer pH 7.5 (see below). The pH was adjusted to between 7.0 and 7.5 by adding 1 mmol/l HCl. After activation of the enzyme it was diluted with the Tris/HCl buffer to a concentration of 1.67 μg/ml.
(§1) The enzymic activity was measured by incubating 10 μl of enzyme solution with 10 μl of a 3% strength (v/v) buffered dimethyl sulfoxide solution (reaction 1) for 15 minutes. The enzyme inhibitor activity was measured by incubating 10 μl of enzyme solution with 10 μl of a 3% strength (v/v) buffered dimethyl sulfoxide solution which contained the enzyme inhibitor (reaction 2).
(§2) The enzymic reaction both in the case of reaction 1 and in the case of reaction 2 was followed after addition of 10 μl of a 3% strength (v/v) aqueous dimethyl sulfoxide solution which contained 0.075 mmol/l of the substrate by fluorescence spectroscopy (328 nm (extinction)/393 nm (emission)).
The enzymic activity has been presented as increase in extinction/minute. The effect of the inhibitor was calculated as percentage inhibition by the following formula: % inhibition=100−[(increase in extinction/minute in reaction 2)/(increase in extinction/minute in reaction 1)×100].
The IC50, which is the concentration of inhibitor which is necessary for 50% inhibition of the enzymic activity, was determined graphically by plotting the percentage inhibitions at various inhibitor concentrations.
The buffer solution contained 0.05% Brij (Sigma, Deisenhofen, Germany) and 0.1 mol/l Tris/HCl, 0.1 mol/l NaCl, 0.01 mol/l CaCl2 (pH=7.5). The enzyme solution contained 1.67 μg/ml of the enzyme domain. The substrate solution contained 0.075 mmol/l of the fluorogenic substrate (7-methoxycoumarin-4-yl)acetyl-Pro-Leu-Gly-Leu-3-(2′,4′-dinitrophenyl)-L-2,3-diaminopropionyl-Ala-Arg-NH2 (Bachem, Heidelberg, Germany).

[3] = target: T3, catalytic domain of human collagenase-1 (MMP-1) (Homo sapiens, UniProt P03956); assay: Enzymatic activity of the catalytic domain of human collagenase-1 (MMP-1), fluorogenic substrate
T3 construct: Determination of the Enzymatic Activity of the Catalytic Domain of Human Collagenase-1 (MMP-1); purchased Biocol, Potsdam MMP1
T3 sequence (P03956 100-269 limits assumed): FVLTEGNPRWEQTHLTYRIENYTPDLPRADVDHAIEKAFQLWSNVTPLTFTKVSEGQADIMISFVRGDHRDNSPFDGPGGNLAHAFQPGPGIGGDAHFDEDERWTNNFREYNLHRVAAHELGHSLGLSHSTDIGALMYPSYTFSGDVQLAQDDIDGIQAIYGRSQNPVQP
Method: Determination of the Enzymatic Activity of the Catalytic Domain of Human Collagenase-1 (MMP-1)
Activation of the Pro enzyme: 2 parts by volume of Pro enzyme are incubated with 1 part by volume of APMA solution at 37° C. for 1 hour. The APMA solution is prepared from a 10 mmol/l p-aminophenylmercuric acetate solution in 0.1 mmol/l NaOH by dilution with 3 parts by volume of tris/HCl buffer pH7.5 (see below). The pH is adjusted to between 7.0 and 7.5 by adding 1 mmol/l HCl. After activation of the enzyme, it is diluted with the tris/HCl buffer to a concentration of 2.5 μg/ml.
as §1, with “is” for “was”, “contains” for “contained”
as §2, with “is” for “was”, “contains 0.3” for “contained 0.075”, “(emission)), and the enzymic activity is presented as increase in extinction per minute.” for “(emission)).”
The effect of the inhibitor is calculated as percentage inhibition by the following formula: % inhibition=100−[(increase in extinction/minute in reaction 2)/increase in extinction/minute in reaction 1)×100].
The IC50, i.e. the inhibitor concentration necessary for 50% inhibition of the enzymic activity, is determined graphically by plotting the percentage inhibitions at various inhibitor concentrations.
The buffer solution contains 0.05% Brij (Sigma, Deisenhofen, Germany) and 0.1 mol/l tris/HCl, 0.1 mol/l NaCl, 0.01 mol/l CaCl2 (pH=7.5).
The enzyme solution contains 2.5 μg/ml of the enzyme domain.
The substrate solution contains 0.3 mmol/l of the fluorogenic substrate (7-methoxycoumarin-4-yl)acetyl-Pro-Leu-Gly-Leu-3-(2′,4′-dinitrophenyl)-L-2,3-diaminopropionyl-Ala-Arg-NH2 (Bachem, Heidelberg, Germany).

Row | Molecule | IC50 [1] [nM] | IC50 [2] [nM] | IC50 [3] [nM]
1 | O=C(NO)[C@H]1c2ccccc2CCN1S(=O)(=O)c1ccc(Oc2ccncc2)cc1 [Compound 11] | 3 | 2.3 | 500
2 | O=C(NO)[C@H]1c2ccccc2CCN1S(=O)(=O)c1ccc(Oc2ccc(OC(F)(F)F)cc2)nc1 [Compound 43, (R)-2-[6-(4-trifluoromethoxyphenoxy)pyridine-3-sulfonyl]-1,2,3,4-tetrahydro-isoquinoline-1-hydroxycarboxamide] | 30 | 30 | > 10000
3 | O=C(NO)[C@H]1c2ccccc2CCN1S(=O)(=O)c1ccc(Oc2ccc(Cl)cc2)nc1 [Compound 45, (R)-2-[6-(4-chlorophenoxy)pyridine-3-sulfonyl]-1,2,3,4-tetrahydroisoquinoline-1-hydroxycarboxamide] | 9 | 8 | 2000
4 | 2-{2-[4-(4-fluorophenoxy)phenyl]ethanesulfonyl}-1,2,3,4-tetrahydroisoquinoline-1-hydroxycarboxamide [Compound 20] | 2.2 | 2.2 | 300
5 | O=C(NO)[C@H]1c2ccccc2CCN1S(=O)(=O)c1ccc(Oc2ccc(C(F)(F)F)cc2)cc1 [Compound 21, (R)-2-[4-(4-trifluoromethylphenoxy)benzenesulfonyl]-1,2,3,4-tetrahydro-isoquinoline-1-hydroxycarboxamide] | 3.2 | 2.5 | 1000
6 | O=C(NO)[C@H]1c2ccccc2CCN1S(=O)(=O)c1ccc(Oc2ccc(Cl)cc2)cc1 [Compound 9] | 2.2 | 2.1 | 42
7 | COc1cc2c(cc1OC)[C@@H](C(=O)NO)N(S(=O)(=O)c1ccc(-c3ccc(Cl)cc3)cc1)CC2 [Compound 15] | 2 | 2 | 300
8 | (R)-4-(1-hydroxycarbamoyl-3,4-dihydro-1H-isoquinoline-2-sulfonyl)phenyl benzoate [Compound 48] | 4 | 3 | 89
9 | O=C(NO)[C@H]1c2ccccc2CCN1S(=O)(=O)c1ccc(Oc2ccc(OCC(F)(F)F)cc2)cc1 [Compound 22] | 110 | 130 | 1600
10 | COc1ccc(F)c2c1[C@H](C(=O)NO)N(S(=O)(=O)c1ccc(-c3ccc(Cl)cc3)cc1)CC2 [Compound 18] | 14 | 7.5 | 4000
